Consider 15 compounds from PubChem BioAssay (NCI).

Test systems include NCI-H23 lung; SNB-75 CNS; SN12C renal; HL-60(TB) leukemia; COLO 205 colon; CCRF-CEM leukemia; RPMI-8226 leukemia; IGROV1 ovarian; UACC-62 melanoma; RXF 393 renal.
Holding throughout (experiment): DTP human tumour cell line panel, 48 h

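Compound exposure: 48 hours, 5 concentrations, 96-well plates. TGI is the concentration that stops growth completely.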

In the case of `C=CCP(=O)(CC=C)C(Cl)Cl`, the concentration for total growth inhibition (TGI) in the assay on NCI-H23 lung, in the assay on SNB-75 CNS, in the assay on SN12C renal, with HL-60(TB) leukemia, in the assay on COLO 205 colon and in the assay on CCRF-CEM leukemia was above 100 µM throughout. The TGI with RPMI-8226 leukemia and with IGROV1 ovarian was above 100 µM each time.
Consider `Cc1ccc(S(=O)CC(CF)OCn2cc(C)c(=O)[nH]c2=O)cc1` (centres undefined), for which the total growth inhibition concentration (TGI) in the assay on NCI-H23 lung, with SNB-75 CNS, in the assay with SN12C renal, with HL-60(TB) leukemia, in the assay with COLO 205 colon and in the assay with UACC-62 melanoma was above 100 µM in each case. Besides, the TGI with RPMI-8226 leukemia and in the assay on IGROV1 ovarian was above 100 µM each time.
Take `CN1CC2=C(NC(=S)NC2c2ccccc2)/C(=C/c2ccccc2)C1` (centres undefined): the TGI with NCI-H23 lung was above 100 µM; in the assay on SNB-75 CNS it was above 100 µM; in the assay with SN12C renal, above 100 µM; with HL-60(TB) leukemia, above 10 µM; in the assay with COLO 205 colon, above 100 µM; in the assay with CCRF-CEM leukemia it was above 100 µM. In addition, the TGI in the assay on UACC-62 melanoma, in the assay with RPMI-8226 leukemia and with IGROV1 ovarian was above 100 µM throughout.
For the compound `COc1ccc(-c2oc3cc(O)cc(O)c3c(=O)c2OC)cc1`, the TGI in the assay on HL-60(TB) leukemia is 38.4 µM; in the assay with COLO 205 colon, above 100 µM; in the assay on CCRF-CEM leukemia, above 100 µM; in the assay with UACC-62 melanoma, above 100 µM; with RPMI-8226 leukemia it was 69.2 µM; in the assay with IGROV1 ovarian, above 100 µM.
On to `CCOC(=O)Nn1c(CC#N)nnc1Cc1ccccc1`, for which the TGI in the assay on NCI-H23 lung, in the assay on SNB-75 CNS, in the assay with SN12C renal, with HL-60(TB) leukemia, in the assay with UACC-62 melanoma and in the assay with RXF 393 renal was above 100 µM in each case. Moreover, the TGI with RPMI-8226 leukemia and in the assay on IGROV1 ovarian was above 100 µM in each case.
For `CC1(C)CC(=O)C2(CC(CSc3ccccc3)C(CS(=O)(=O)c3ccccc3)C2)C(=O)C1` (centres undefined), the TGI with NCI-H23 lung, with SNB-75 CNS, in the assay with SN12C renal, with COLO 205 colon, in the assay with CCRF-CEM leukemia and in the assay with UACC-62 melanoma was above 100 µM in each case. Moreover, the TGI with RXF 393 renal, with RPMI-8226 leukemia and in the assay with IGROV1 ovarian was above 100 µM throughout.
As to `Cc1cc(OC(=O)NCn2cc(-c3ccccc3)nn2)ccc1Cl`, the concentration for total growth inhibition (TGI) in the assay on NCI-H23 lung, in the assay with SNB-75 CNS, with SN12C renal, in the assay on HL-60(TB) leukemia, in the assay on COLO 205 colon and in the assay on CCRF-CEM leukemia was above 100 µM each time. Also, the TGI with RPMI-8226 leukemia and in the assay on IGROV1 ovarian was above 100 µM in each case.
In the case of `CCOC(=O)c1cc(C)nc2c1c(=O)n(-c1ccccc1)c(=O)n2CCCCN1CCN(c2ccccc2)CC1`, the TGI with NCI-H23 lung was above 100 µM; with SNB-75 CNS it was above 100 µM; with SN12C renal, above 100 µM; in the assay on HL-60(TB) leukemia it was 49.1 µM; in the assay on COLO 205 colon it was above 100 µM; in the assay on UACC-62 melanoma, above 100 µM. Moreover, the TGI with RXF 393 renal is above 100 µM; with RPMI-8226 leukemia it was 77.3 µM; in the assay on IGROV1 ovarian, above 100 µM.
With `CCCCCCCCCCCCCCCCCCNc1nc(=O)n(C2CC(O)C(COP(=O)(O)O)O2)cc1F` (centres undefined), the TGI was above 100 µM in the assay with NCI-H23 lung; above 100 µM in the assay with SNB-75 CNS; above 100 µM in the assay on SN12C renal; above 100 µM in the assay on COLO 205 colon; 81.2 µM in the assay on CCRF-CEM leukemia; above 100 µM with UACC-62 melanoma. For the same compound, the TGI in the assay with RXF 393 renal, in the assay with RPMI-8226 leukemia and in the assay with IGROV1 ovarian was above 100 µM throughout.
`C=C(C)[C@H]1C2=CC(C)=C(O2)[C@@H](O[C@@H]2c3oc(cc3C)[C@H](C(=C)C)[C@H]3C=C(CC[C@H]2C(=C)C)C(=O)O3)[C@H](C(=C)C)CCC2=C[C@H]1OC2=O`: the TGI in the assay on NCI-H23 lung, with SNB-75 CNS, in the assay with SN12C renal, in the assay with HL-60(TB) leukemia, in the assay with COLO 205 colon and in the assay on CCRF-CEM leukemia was above 100 µM in each case. Moreover, the TGI in the assay with UACC-62 melanoma, in the assay with RPMI-8226 leukemia and in the assay on IGROV1 ovarian was above 100 µM in each case.
With `C/C(=N\NC(=S)N(C)C)c1cccnn1`, the total growth inhibition concentration (TGI) was above 28.2 µM with NCI-H23 lung; above 100 µM with SNB-75 CNS; above 100 µM in the assay on SN12C renal; above 100 µM in the assay with HL-60(TB) leukemia; above 100 µM with COLO 205 colon; 4.89 µM in the assay on UACC-62 melanoma. Besides, the TGI was above 100 µM in the assay on RPMI-8226 leukemia and above 40.3 µM in the assay on IGROV1 ovarian.
Consider `C=CCOn1c(C=C)nc2ccc(C)cc21`, for which the TGI stood at 46 µM with NCI-H23 lung; 43.4 µM in the assay with SNB-75 CNS; 33.4 µM in the assay with SN12C renal; 22.2 µM with HL-60(TB) leukemia; 26.9 µM with COLO 205 colon; 7.21 µM with CCRF-CEM leukemia. Besides, the TGI was 26.8 µM in the assay on UACC-62 melanoma, 24.9 µM with RPMI-8226 leukemia and above 100 µM in the assay with IGROV1 ovarian.
Regarding `COc1ccc(C(=O)CC(c2ccccc2)[C@H]2C(c3ccc(OC)cc3)=Nc3c(nc(SC)n(C)c3=O)NC2c2ccccc2)cc1` (some centres undefined), the TGI in the assay on NCI-H23 lung, with SN12C renal, in the assay with COLO 205 colon, with CCRF-CEM leukemia, in the assay with UACC-62 melanoma and in the assay with RXF 393 renal was above 100 µM each time. Also, the TGI in the assay on RPMI-8226 leukemia and in the assay on IGROV1 ovarian was above 100 µM each time.
For the compound `COc1cccc(N=N/C(=N\NC(=O)c2ccc(C)cc2)c2ccc(N(CCC#N)CCC#N)cc2C)c1`, the TGI with NCI-H23 lung, with SNB-75 CNS, in the assay on SN12C renal, in the assay with COLO 205 colon, in the assay on RXF 393 renal and with RPMI-8226 leukemia was above 100 µM each time. This compound displayed a TGI with IGROV1 ovarian above 100 µM.
With `O=c1c(-c2ccccc2)c(SCCO)n(-c2ccccc2)c(=S)n1-c1ccccc1`, the TGI in the assay with NCI-H23 lung, in the assay on SNB-75 CNS, in the assay on SN12C renal, in the assay on HL-60(TB) leukemia, in the assay on COLO 205 colon and with CCRF-CEM leukemia was above 100 µM in each case. Besides, the TGI in the assay on UACC-62 melanoma, with RPMI-8226 leukemia and in the assay with IGROV1 ovarian was above 100 µM in each case.
